Test results as given in BigSolDB 2.1.

C[N+](C)(C)CCO.[Cl-]
Conditions	solubility (mole fraction)
in ethanol, 269.8 K	0.017
in ethanol, 276.4 K	0.027
in ethanol, 281.8 K	0.038
in ethanol, 287.2 K	0.054
in ethanol, 290.5 K	0.066
in ethanol, 292.4 K	0.072
in ethanol, 296.7 K	0.082
in ethanol, 300.5 K	0.089
in ethanol, 305.7 K	0.098
in ethanol, 308.4 K	0.109
in ethanol, 315.3 K	0.125
in ethanol, 321.6 K	0.138
in n-butanol, 314.6 K	0.031
in n-butanol, 321.2 K	0.049
in n-butanol, 328.6 K	0.068
in n-butanol, 340.8 K	0.086
in n-butanol, 346.4 K	0.109
in n-butanol, 349.4 K	0.131
in n-butanol, 352.9 K	0.147
in n-propanol, 288.9 K	0.015
in n-propanol, 295.7 K	0.023
in n-propanol, 302.3 K	0.039
in n-propanol, 308.7 K	0.05
in n-propanol, 309.6 K	0.059
in n-propanol, 316.5 K	0.073
in n-propanol, 323.2 K	0.086
in n-propanol, 330.7 K	0.108
in n-propanol, 335.3 K	0.129
in n-propanol, 338 K	0.153

C[N+](C)(C)CCOC(=O)CCCC(=O)O.[Cl-]
Conditions	solubility (mole fraction)
in ethanol, 300.2 K	0.006
in ethanol, 310.6 K	0.008
in ethanol, 316.8 K	0.01
in ethanol, 318.5 K	0.012
in ethanol, 322.1 K	0.017
in ethanol, 325.4 K	0.023
in ethanol, 333.2 K	0.033
in ethanol, 335.8 K	0.039
in ethanol, 338.1 K	0.043
in ethanol, 339.4 K	0.055
in n-butanol, 304.8 K	0.001
in n-butanol, 318.7 K	0.0019
in n-butanol, 323.8 K	0.0022
in n-butanol, 327.5 K	0.0025
in n-butanol, 330.4 K	0.0029
in n-butanol, 335.1 K	0.0035
in n-butanol, 341 K	0.004
in n-propanol, 305.4 K	0.002
in n-propanol, 306.6 K	0.003
in n-propanol, 309.4 K	0.003
in n-propanol, 315.5 K	0.004
in n-propanol, 319.9 K	0.005
in n-propanol, 324.6 K	0.008
in n-propanol, 331.2 K	0.011
in n-propanol, 335.1 K	0.013
in n-propanol, 338.5 K	0.017

CC(=O)[O-].C[N+](C)(C)CCO
Conditions	solubility (mole fraction)
in ethanol, 259.8 K	0.049
in ethanol, 261.8 K	0.067
in ethanol, 263.9 K	0.09
in ethanol, 265.7 K	0.112
in ethanol, 267.1 K	0.13
in ethanol, 267.8 K	0.143
in ethanol, 271.7 K	0.174
in ethanol, 272.1 K	0.184
in ethanol, 276.6 K	0.228
in ethanol, 278.5 K	0.252
in ethanol, 282.8 K	0.29
in ethanol, 286.1 K	0.319
in n-butanol, 268.2 K	0.023
in n-butanol, 273 K	0.048
in n-butanol, 276.9 K	0.074
in n-butanol, 279.9 K	0.102
in n-butanol, 281.8 K	0.136
in n-butanol, 284.2 K	0.172
in n-butanol, 287.7 K	0.209
in n-butanol, 290.4 K	0.233
in n-butanol, 295.4 K	0.293
in n-butanol, 297.7 K	0.317
in n-propanol, 263.8 K	0.0191
in n-propanol, 266.9 K	0.0394
in n-propanol, 270.3 K	0.062
in n-propanol, 273.1 K	0.0844
in n-propanol, 274.1 K	0.11
in n-propanol, 276 K	0.144
in n-propanol, 277.7 K	0.174
in n-propanol, 279.9 K	0.211
in n-propanol, 280.9 K	0.234
in n-propanol, 282.7 K	0.269
in n-propanol, 285.2 K	0.316

C[N+](C)(C)CCOC(=O)CCC(=O)O.[Cl-]
Conditions	solubility (mole fraction)
in ethanol, 299 K	0.008
in ethanol, 300.8 K	0.01
in ethanol, 305.5 K	0.015
in ethanol, 310.9 K	0.02
in ethanol, 313.1 K	0.026
in ethanol, 315.6 K	0.028
in ethanol, 320.5 K	0.038
in ethanol, 322 K	0.044
in n-butanol, 300.4 K	0.003
in n-butanol, 308.8 K	0.004
in n-butanol, 312.7 K	0.006
in n-butanol, 318.8 K	0.008
in n-butanol, 322.4 K	0.009
in n-butanol, 326.4 K	0.012
in n-butanol, 329.8 K	0.014
in n-butanol, 338.8 K	0.016
in n-propanol, 299.2 K	0.006
in n-propanol, 305.5 K	0.008
in n-propanol, 310.9 K	0.01
in n-propanol, 318.7 K	0.013
in n-propanol, 325.2 K	0.02
in n-propanol, 328.9 K	0.025
in n-propanol, 333.2 K	0.031
in n-propanol, 336.1 K	0.039
